The record followed here is PubChem BioAssay (NCI).

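Growth conditions: 96-well plates. Treatment: test compound, 48 hours, 5 concentrations. Analysis: linear interpolation between bracketing concentrations; unreached endpoints set to highest concentration. Here, GI50 denotes the concentration required for 50% inhibition of growth. TGI denotes the concentration required for complete inhibition of growth.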 Some results are limits rather than exact numbers.

Holding throughout (assay): NCI anticancer screen, dose series, 48 h
The subject of test [1] is ACHN renal.
Test [2] concerns IGROV1 ovarian.
Test [3] concerns MCF7 breast.
In test [4] the test system is NCI-H522 lung.
The subject of test [5] is SK-MEL-5 melanoma.
Test [6] has as its system SNB-19 CNS.
Test [7] relates to TK-10 renal.
The subject of test [8] is UO-31 renal.
Test [9] concerns HT29 colon.
Test [10] relates to EKVX NSCLC.

In the case of `C=C(C)C1/C=C(/C(C)C)CC[C@]2(C)O[C@@H]2CC[C@H](C)CC1=O` (stereo partly drawn), the GI50 in [1] is 72.4 µM; in test [2], 77.8 µM; in test [3], 50.7 µM; in [4], above 100 µM; in [5], 55 µM; in test [6], above 100 µM. The GI50 in test [7] was 66.6 µM; in [8], 28.6 µM. For the same molecule, the TGI in test [1], in test [2], in test [3], in test [4], in test [5] and in test [6] was above 100 µM each time. The TGI in test [7] is above 100 µM; in test [8], 98.1 µM.

For the molecule `COc1ccccc1-n1c(SCc2cc(OC)c(OC)c(OC)c2)nc2ccc(Cl)cc2c1=O`, the GI50 was 7.07 µM in [1]; 2.91 µM in test [9]; 10.9 µM in [2]; 0.915 µM in [3]; 2.61 µM in test [4]; 1.47 µM in [5]. Also, the values for the GI50 in [7] and in test [8] were 48.6 µM and 8.52 µM, respectively. Moreover, the TGI in test [1], in [9], in test [2], in test [3], in test [4] and in test [5] was above 100 µM in each case. For the same molecule, the TGI in test [7] and in test [8] was above 100 µM each time.

On to `COc1cc(Br)c(CC2=NCCc3cc(OC)c(OC)cc32)cc1OC`, for which the TGI in [1] was above 100 µM; in [10], above 100 µM; in test [9], above 100 µM; in [2], above 100 µM; in [4], 65.2 µM; in test [5] it was 36 µM. Further, the figures for the TGI in test [6], in test [7] and in [8] were above 100 µM, above 100 µM and 95.1 µM, respectively.

`COc1cc2c(cc1C)n(O)c(C)c(C(=O)C/C(=N/NC(=O)C[N+](C)(C)C)C(=O)Nc1cccc(Cl)c1C)[n+]2=O`: the TGI in [1], in [10], in test [9], in test [2], in [4] and in [5] was above 100 µM each time. For the same molecule, the TGI in test [6], in test [7] and in [8] was above 100 µM throughout.

For the molecule `COc1ccccc1/C=C\c1cc(OC)c(OC)c(OC)c1`, the TGI is above 100 µM in [1]; above 100 µM in test [10]; above 100 µM in [9]; above 100 µM in test [2]; 45.5 µM in test [4]; 13.5 µM in test [5]. The TGI was above 100 µM in [6], above 100 µM in test [7] and 60.4 µM in test [8].

As for `Cc1ccc(Nc2ccc(Nc3ccc(C)cc3)c3c2C(=O)c2c(O)ccc(O)c2C3=O)cc1`, the TGI in test [1], in test [10], in test [2], in [4], in [5] and in test [6] was above 100 µM each time. Also, the TGI in [7] and in [8] was above 100 µM each time.

`CCOC(=O)C12CC1(C(=O)OCC)C1CCC2C1` (stereo not drawn): the TGI in test [1], in test [9], in [2], in test [5], in [6] and in test [7] was above 100 µM each time. The molecule further came in with a TGI in [8] above 100 µM.

As for `COc1ccc(C(=O)C=C2NCCN2)cc1`, the TGI in test [1], in [10], in test [9], in test [2], in [4] and in test [5] was above 100 µM each time. Besides, the TGI in [6], in test [7] and in [8] was above 100 µM each time.

In the case of `Cc1ccc(NC(=O)C(=O)Cc2nc3ccccc3o2)c(C)c1`, the TGI in test [1], in test [10], in [9], in test [2], in test [6] and in test [7] was above 100 µM throughout. The molecule also returned a TGI in test [8] above 100 µM.

For the molecule `Cc1ccc(N2C(=O)/C(=C3\Sc4c(nc(C)[nH]c4=O)N3c3ccccc3)SC2=S)cc1`, the TGI in test [1], in test [10], in [9], in test [2], in [4] and in test [5] was above 100 µM each time. Also, the TGI was above 100 µM in [6], 59.2 µM in [7] and 92.1 µM in [8].

In the case of `CCOC(=O)C(C)(C)Oc1ccc2c(-c3ccc(Cl)cc3)cc(=O)oc2c1`, the TGI in test [1], in [10], in [9], in test [2], in test [5] and in test [6] was above 100 µM in each case. Further, the TGI in test [7] and in [8] was above 100 µM each time.

As to `CC[C@@H]1OC2(C)CC(S(=O)(=O)c3ccccc3)CC1O2` (stereo partly drawn), the TGI in [1], in test [10], in test [9], in test [2], in test [4] and in [5] was above 100 µM throughout. The TGI in [6] and in [8] was above 100 µM throughout.

Consider `O=C1C(c2ccccc2)=C(c2ccccc2)C(c2ccc(CCCCCCc3ccc(C4=C(c5ccccc5)C(=O)C(c5ccccc5)=C4c4ccccc4)cc3)cc2)=C1c1ccccc1`, for which the TGI in test [1], in test [10], in test [9], in [2], in test [4] and in [5] was above 100 µM in each case. Moreover, the TGI in [6], in [7] and in [8] was above 100 µM each time.

As to `COC1=C(OC)CCC(/C(C#N)=C/c2ccc(OC)c(OC)c2)=C1`, the TGI in test [1] is above 100 µM; in test [9], above 100 µM; in test [2] it was above 100 µM; in test [4], 70.5 µM; in test [5], above 100 µM; in [7], 98 µM. Besides, the TGI in [8] is above 100 µM.

Consider `COc1ccc(C2S/C(=C\c3ccc(OC)cc3OC)C(=O)N2NC(=O)Cc2ccccc2)cc1` (stereo not drawn), for which the TGI in test [1], in [9], in [2], in test [4], in [5] and in [7] was above 100 µM each time. The molecule further registered a TGI in test [8] above 100 µM.
